Source: US6498195B2, “Use of 1-propanone-1-(2,4-dihydroxyphenyl)-3-hydroxy-3-(4′-hydroxyphenyl) as an anticarcinogenic agent” (Rutgers, The State University of New Jersey, priority 2000, dated 2002)
pIC50: −log10 of the molar value. Like-named read-outs stand apart in the source and are kept apart here. Blank lines part the entries; values can stand above or below the molecule they belong to.

What was measured:
bcl-2 = assay: Bcl-2 expression and phosphorylation assay (Western blot mobility shift); type: cell-based; details: for bcl-2 phosphorylation: immunoblotting, slower migrating band vs vehicle control, cell line not stated
Experimental: Analysis of bcl-2 protein expression was performed using a Western blot assay as previously described (Haldar, S. et al. 1996. Cancer Res. 56:1253; Haldar, S. et al. 1995. Proc. Natl. Acad. Sci. USA 92:4507-4511). Protein identification was made using a monoclonal bcl-2 primary antibody (DAKO Corporation) and secondary goat anti-mouse horseradish peroxidase conjugated antibody (Bio-Rad Laboratories, Richmond, CA). The phosphorylation of bcl-2 was determined by mobility shifts in the Western bolt as described by Haldar (Haldar, S. et al. 1996. Cancer Res. 56:1253; Haldar, S. et al. 1995. Proc. Natl. Acad. Sci. USA 92:4507-4511).

microtubule structure [1] = details: stated as 'has been shown'; cited from earlier work
microtubule structure [2] = assay: Microtubule assay (indirect immunofluorescence); type: cell-based
Experimental: Microtubule structure was assessed by indirect immunofluorescence as previously described (Zhang, C. C. et al. 1998. Oncogene 16:1617-1624). Cells were grown on coverslips and fixed in ice-cold methanol at −20° C. after drug treatment. The cells were then incubated with a 1:100 dilution of monoclonal anti-alpha-tubulin antibody (Clone DM 1A, mouse ascites fluid; Sigma) in 3% BSA in PBS for 30 minutes and washed in 3% BSA in PBS for 10 minutes. This was followed by incubation with FITC-goat anti-mouse IgG (1:50 dilution) as a secondary antibody for 30 minutes and washed in 3% BSA/PBS and visualized under a epifluorescent microscope (Zeiss AXIOSKOP) using a plan-NEOFLUAR 100 X oil immersion objective. The photographs were captured on a cooled CCD camera (DAGE-MTI) using Scion Image.

MCF-7 tumor cells = assay: Cell cycle analysis by flow cytometry; type: cell-based
Experimental: Cells were treated for 24 hours, incubated with 10 μM BrdU for 45 minutes at 37° C. Cells were then washed with ice-cold PBS, resuspended in 200 μl PBS and fixed with cold 70% ethanol. The cells were resuspended, incubated for 30 minutes in 2 N HCl/0.5% Triton X-100 in PBS, and neutralized by rinsing once in 0.1 M sodium tetraborate (pH 8.5). Fluorescein isothiocyanate (FITC)-conjugated anti-BrdU antibody (Becton Dickinson) was added (10 μg/sample) in 50 μl of 0.5% Tween 20/1% BSA in PBS and incubated for 30 minutes. The cells were washed and resuspended in 1 ml of PBS containing 5 μg/ml propidium iodide. Fluorescence intensity was determined by quantitative flow cytometry and profiles were generated on a Becton Dickinson FACScan. A minimum of 10,000 cells were analyzed.

MCF-7 cells = system: MCF-7 cells
Experimental: The Apoalert Annexin V-EGFP method (CLONTECH, Palo Alto, Calif.) was used to assess for apoptosis. Briefly, tumor cells were treated for 2 hours and cells were washed with fixing solution and stained with Annexin V-EGFP and propidium iodide for 15 minutes in the dark. Cells were viewed using a Nikin Eclipse TE-200 (Nikon Corporation, Tokyo, Japan) inverted fluorescent microscope. Photographs were captured using a SPOT digital camera (Diagnostic, Inc., Sterling Heights, Mich.) in combination with SPOT […] (Pharmingen, San Diego, Calif.). Cells (1×10^6 per dish) were treated for 12 hours, washed with PBS, and fixed in 1% paraformaldehyde in ice for 30 minutes. After fixation, cells were washed twice with PBS and fixed in 70% ethanol. The pellets were washed and resuspended in 50 μl of the DNA labeling solution containing Br-dUTP and TdT enzyme and incubated for 60 minutes at 37° C. After incubation, the pellets were washed, incubated with FITC labeled anti-BrdU antibody in the dark for 30 minutes at room temperature, and stained with propidium iodide and RNase. The stained cells were analyzed by flow cytometry after 30 minutes. Cell viability was assessed by the tetrazolium dye method as previously described (Scudiero, D.A. et al. 1988. Cancer Res. 48:4827-4833).

Structure (SMILES): O=C(CC(O)c1ccc(O)cc1)c1ccc(O[C@@H]2O[C@H](CO)[C@@H](O)[C@H](O)[C@H]2O)cc1O (single isomer, unassigned; peak 2) [peak 2, 1-propanone-1-(2,4-dihydroxyphenyl-4′-o-beta-D-glucopyranoside)-3-hydroxy-3-(4′-hydroxyphenyl)]
- bcl-2 phosphorylation (bcl-2): induce bcl-2 phosphorylation

Structure (SMILES): CC(=O)O[C@H]1C(=O)[C@@]2(C)[C@H]([C@H](OC(=O)c3ccccc3)[C@]3(O)C[C@H](OC(=O)[C@H](O)[C@@H](NC(=O)c4ccccc4)c4ccccc4)C(C)=C1C3(C)C)[C@]1(OC(C)=O)CO[C@@H]1C[C@@H]2O [paclitaxel]
- effect on microtubule structure (microtubule structure [1]): induce microtubule bundles

Structure (SMILES): O=C(CC(O)c1ccc(O[C@@H]2O[C@H](CO)[C@@H](O)[C@H](O)[C@H]2O)cc1)c1ccc(O)cc1O (single isomer, unassigned; peak 1) [peak 1, 1-propanone-1-(2,4-dihydroxyphenyl)-3-hydroxy-3-(4′-hydroxyphenyl-4′o-beta-D-glucapyranoside)]
- bcl-2 phosphorylation (bcl-2): induce bcl-2 phosphorylation

- pIC50 (MCF-7 cells; read-out: IC50, decrease of cell viability, 72 hours): 4.89
Structure (SMILES): O=C(CC(O)c1ccc(O)cc1)c1ccc(O)cc1O (stereo not shown) [DC, 1-propanone-1-(2,4-dihydroxyphenyl)-3-hydroxy-3-(4′-hydroxyphenyl)]
- effect on microtubule structure (microtubule structure [2]): induce microtubule fragmentation
- phosphorylation of bcl-2 (bcl-2; DUPro-1 tumor cells): induce phosphorylation of bcl-2
- phosphorylation of bcl-2 (bcl-2; MCF-7 tumor cells): induce phosphorylation of bcl-2
- bcl-2 phosphorylation (bcl-2): induce bcl-2 phosphorylation
- G2/M cell cycle arrest (MCF-7 tumor cells): induced a G2/M cell cycle arrest
- apoptosis (extracellular phosphatidylserine detection) (MCF-7 cells; similar to 10 μM camptothecin control): induced apoptosis
